Reference: patent publication US5849587A, “Method of inhibiting viral replication in eukaryotic cells and of inducing apoptosis of virally-infected cells” (Cornell Research Foundation, Inc., priority 1995, dated 1998)

What was measured:
cellular protein TNF-α = test: TNF-α biosynthesis and secretion (ELISA) in PMA-induced ACH-2 cells; assay type: cell-based, human; details: 200 μM, PMA-induced ACH-2, FIG. 10
[1] = system: HIV-1 p24 antigen, H9 cells; test: p24 antigen levels (ELISA) in chronically HIV-1 infected H9 cells; assay type: cell-based; details: 48 hours, FIGS. 8 and 9
Description: 1. Dose-dependency of antiviral effect. Cells of the human T lymphocyte line H9, chronically and productively infected with the Lai (IIIb) strain of HIV-1, were harvested during logarithmic proliferation, extensively washed to remove viral antigens and infectious particles, and re-suspendedin serum-supplemented and antibiotic-containing RPMI 1640 medium at a density of 2×10^5 cells/ml. After incubation with increasing concentrations of mimosine or HK-1 for 48 hours, the cells were harvested, lysed, and used to determine the intracellular amount of the p24 antigen derived from the p55 Gag polyprotein, using a commercially available, p24-specific ELISA method (Coulter, Hialeah, Fla.); the same method was also used to quantify the extracellular level of p24 antigen that had accumulated in the supernatant during incubation with the hypusine inhibitors. In addition, titration assays were performed using CEM target cells to measure the infectivity of virus produced in the absence and presence of the hypusine inhibitors using the procedure of Prince et al., Proc. Natl. Acad. Sci. USA 85, 6944-6948 (1988), which is hereby incorporated by reference. The half-maximal tissue culture infectious doses (TCID50) of HIV-1 per ml of test sample were calculated by the Spearman-Karber method.

[2] = system: viral p24 antigen, ACH-2 cells; test: p24 antigen levels (ELISA) in PMA-induced ACH-2 cells; assay type: cell-based, HIV-1; details: 200 μM, PMA-induced ACH-2, FIG. 10
Description: 142, 431-438 (1989), which is hereby incorporated by reference]. However, vigorous HIV-1 production by ACH-2 cells is induced by addition of the phorbol ester PMA [Pomerantz et al., Cell 61, 1271-1276 (1990) and Michael et al., J. Virol 65, 1291-1303 (1991), which are hereby incorporated by reference]. This system was selected for these experiments. Logarithmically growing ACH-2 cells, suspended at a concentration of 3×10^5 /ml, were incubated with the hypusine inhibitors mimosine and HK-1 at a final concentration of 200 μM. After 8 hours, viral replication was activated by addition of PMA to these cells and to untreated controls (100 ng/ml final PMA concentration). […] An aliquot of each fraction was analyzed by slot blotting, using the pXC-1 genomic ribosomal DNA probe from rat containing the 18S rRNA coding sequence [Rimarachin, Szabo et al., In Vitro 28A, 705-707 (1992), which is hereby incorporated by reference], to determine the location within the gradient of 18S rRNA, i.e., the distribution of polysomes vs. monosomes. […] Following electrophoresis, the radio-labeled PCR products were visualized by autoradiography according to routine techniques, and the band intensities quantified by densitometric analysis and expressed relative to total product per gradient. […]

[3] = system: HIV-1 infected ACH-2 cells; test: Cell membrane integrity (trypan blue exclusion, retention of labeled eIF-5A), HIV-1 infected cells; assay type: cell-based, human; details: during 18-21 h incubation and 2-4 hours after withdrawal, FIGS. 12A and B
Description: FIGS. 12A and B show the loss of cell membrane integrity suffered by HIV-1 producing ACH-2 cells and their uninfected parent cell line CEM during incubation with and after withdrawal of mimosine and HK-1. The black bar indicates the duration of inhibitor exposure, the open bar the duration of inhibitor withdrawal. Cell membrane integrity was determined by the ability of the cells to exclude the low-molecular weight dye trypan blue (FIGS. 12A and B) and to retain the spermidine-derived radioactive label of a single, obligatory intracellular protein species, eIF-5A and its deoxyhypusyl precursor (FIG. 12A).
ACH-2 cells were incubated with hypusine inhibitors (mimosine, HK-1) and induced with PMA as outlined in Example II A, except that the duration of exposure to inhibitor was extended to 18-21 hours and that cells were labeled as detailed in Example I B. Half of the cells were then harvested and processed for detection of apoptosis, while the other half was washed free of inhibitors and re-incubated in fresh medium for 2-4 hours, followed by harvesting and processing for detection of […] apoptosis. Using the same protocol, cultures of the parent CEM cell line were incubated in parallel. […]

Cc1c(O)c(=O)ccn1C [HK-1, 1,2-dimethyl-3-hydroxypyrid-4-one]
TNF-α biosynthesis and secretion (cellular protein TNF-α): absence of such a suppressive effect | intra- and extracellular p24 antigen levels [1]: inhibitory effect on the extracellular (FIG. 9A) and intracellular (FIG. 9B) levels of the p24 antigen | viral p24 antigen in cells and supernatant [2]: suppressive effect | cell membrane integrity, HIV-1 producing ACH-2 [3]: the most marked, uniform and rapid decline of membrane integrity developed 2-4 hours after inhibitor withdrawal

N[C@@H](Cn1ccc(=O)c(O)c1)C(=O)O [L-Mimosine]
TNF-α biosynthesis and secretion (cellular protein TNF-α): absence of such a suppressive effect | intra- and extracellular p24 antigen levels [1]: inhibitory effect on the intracellular (FIG. 8A) and extracellular (FIG. 8B) levels of the p24 antigen | viral p24 antigen in cells and supernatant [2]: suppressive effect | cell membrane integrity, HIV-1 producing ACH-2 [3]: the most marked, uniform and rapid decline of membrane integrity developed 2-4 hours after inhibitor withdrawal
